Series [1] in a line: Particle size of pulverized adapalene raw material, laser particle size analyzer, dry detection. As to conditions: raw material after jet-mill pulverization, dry method detection (Example 3). The class given is physicochemical. The source says:
Method: Taking the appropriate amount of this product, using Malvern MS3000 laser particle size analyzer, dry detection, D50 should not greater than 10 μm, D90 should not greater than 30 um.
After pulverization the raw materials of adapalene was subjected to dry method detection and D50 was found not more than 10 um, D90 was found not more than 30 um. Adapalene was pulverized using a jet mill to achieve the target particle size.

For series [2] the following is noted: cited from earlier work.
The next series addresses T1, RARPβ (Homo sapiens, UniProt P10826).
T1 sequence (P10826 1-455): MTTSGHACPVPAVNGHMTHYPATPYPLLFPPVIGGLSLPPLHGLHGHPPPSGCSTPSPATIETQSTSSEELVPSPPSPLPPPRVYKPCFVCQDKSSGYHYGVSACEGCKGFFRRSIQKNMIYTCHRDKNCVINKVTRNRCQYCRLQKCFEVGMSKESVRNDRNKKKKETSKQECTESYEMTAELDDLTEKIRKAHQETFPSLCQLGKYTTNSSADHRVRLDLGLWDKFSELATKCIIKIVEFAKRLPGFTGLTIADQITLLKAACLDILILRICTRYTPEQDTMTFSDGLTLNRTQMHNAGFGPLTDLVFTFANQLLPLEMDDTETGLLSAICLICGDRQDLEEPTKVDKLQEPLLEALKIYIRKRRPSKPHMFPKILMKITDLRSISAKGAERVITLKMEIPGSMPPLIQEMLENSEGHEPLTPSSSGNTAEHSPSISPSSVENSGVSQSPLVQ
As to conditions: cited from earlier work.

The target of a further series is T2, RARγ (Homo sapiens, UniProt P13631).
T2 sequence (P13631 1-454): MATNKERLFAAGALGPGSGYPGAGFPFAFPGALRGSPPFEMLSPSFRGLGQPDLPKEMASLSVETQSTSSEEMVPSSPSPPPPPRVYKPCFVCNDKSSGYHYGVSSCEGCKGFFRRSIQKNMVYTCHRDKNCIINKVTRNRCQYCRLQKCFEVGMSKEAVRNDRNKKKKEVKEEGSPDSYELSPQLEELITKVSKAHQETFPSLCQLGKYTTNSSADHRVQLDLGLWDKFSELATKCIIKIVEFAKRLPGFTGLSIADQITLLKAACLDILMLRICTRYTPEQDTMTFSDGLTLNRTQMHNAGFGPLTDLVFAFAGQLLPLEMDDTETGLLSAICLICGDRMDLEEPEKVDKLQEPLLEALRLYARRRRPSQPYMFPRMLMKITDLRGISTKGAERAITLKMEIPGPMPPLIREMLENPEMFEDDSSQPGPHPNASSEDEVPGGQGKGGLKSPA
As to conditions: cited from earlier work.

Another series addresses T3, RARα (Homo sapiens, UniProt P10276).
T3 sequence (P10276 1-462): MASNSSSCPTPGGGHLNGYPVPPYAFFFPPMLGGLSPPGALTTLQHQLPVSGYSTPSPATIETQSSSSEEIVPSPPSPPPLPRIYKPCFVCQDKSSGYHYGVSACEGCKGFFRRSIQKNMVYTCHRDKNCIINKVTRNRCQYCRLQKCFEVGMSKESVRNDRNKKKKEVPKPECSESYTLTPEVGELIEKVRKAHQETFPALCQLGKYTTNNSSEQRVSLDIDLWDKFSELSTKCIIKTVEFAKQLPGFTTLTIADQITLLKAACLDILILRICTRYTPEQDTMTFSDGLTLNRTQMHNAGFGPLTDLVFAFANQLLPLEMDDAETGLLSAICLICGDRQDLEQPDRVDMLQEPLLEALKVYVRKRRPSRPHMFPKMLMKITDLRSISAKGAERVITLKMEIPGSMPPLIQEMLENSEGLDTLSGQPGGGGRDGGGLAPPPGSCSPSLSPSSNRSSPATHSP
As to conditions: cited from earlier work.

For series [3], the system named is glutamine invertase of keratinocytes. Conditions: in vitro; cited from earlier work.
Another series relates to acne. Conditions: animals; cited from earlier work.

Each structure is given as a SMILES string. Where two headings read alike, the source gives them in different places.

Regarding `COc1ccc(-c2ccc3cc(C(=O)O)ccc3c2)cc1C12CC3CC(CC(C3)C1)C2` [Adapalene, 6-[3-(1-adamantyl)-4-methoxyphenyl]-2-naphthoic acid], the D50 entry in series [1] is reported as “not more than 10 um”. Besides, in series [1], the D90 result is reported as “not more than 30 um”. The solubility result in series [2] (in ethanol) is recorded as “insoluble”; in series [2] (in tetrahydrofuran), “slightly soluble”; in series [2] (in water), “insoluble”. The “binding to RARPβ” value at RARPβ is “mainly binds”. Moreover, the “binding to RARγ” value on RARγ is on record as “mainly binds”. The “binding to RARα” value on RARα was “weak binding”. Moreover, in series [3], the “inhibition of glutamine invertase of keratinocytes” value is listed as “inhibits”. The “effects in animal experiments” value in the series with acne was “acne dissolution and local anti-inflammatory effects”.

The record behind these values is patent publication US11058636B2, “Dispersion process of adapalene in a gel preparation” (ZHAOKE (GUANGZHOU) OPHTHALMIC DRUG COMPANY LIMITED, priority 2017, dated 2021).
